Tests used:
[1] = Toxicity: LC50 (lethal concentration, 50%); format: in vivo; conditions: pure heptafluoroisobutyronitrile
[2] = Toxicity for humans and animals (statement)
Source text: Currently, the most widely-used gas in that type of equipment is sulfur hexafluoride (SF6). That gas presents dielectric strength that is relatively high, good thermal conductivity, and low dielectric losses. It is chemically inert, non-toxic for humans and animals and, after being dissociated by an electric arc, it recombines quickly and almost completely. In addition, it is non-flammable and its price is still moderate.

[3] = prior art statement; cited from earlier work

N#CC(F)(C(F)(F)F)C(F)(F)F [Heptafluoroisobutyronitrile, 2,3,3,3-tetrafluoro-2-trifluoromethyl propanenitrile]
LC50 (lethal concentration, 50%) [1]: greater than 15000 ppm | toxicity for humans [2]: no specific toxicity

FS(F)(F)(F)(F)F [SF6, sulfur hexafluoride]
toxicity for humans and animals [3]: non-toxic
